This passage reports Ki results from ChEMBL document CHEMBL5260857, “Identification of specific carbonic anhydrase inhibitors via in situ click chemistry, phage-display and synthetic peptide libraries: comparison of the methods and structural study” (RSC Med Chem, 2023).

In the assay the target is Carbonic anhydrase 9 (Homo sapiens, UniProt Q16790). Put plainly: Inhibition of human carbonic anhydrase 9 assessed as Ki by stopped-flow carbon dioxide hydration assay.

Molecules are shown by their SMILES. Where a SMILES comes first, the peptide text is derived from it. The star is where a group is joined. X2 = NS(=O)(=O)c1ccc(CCNC(=O)Cn2cc(COC(=O)*)nn2)cc1; X1 = NS(=O)(=O)c1ccc(CO/N=C/C(=O)*)cc1

Take `CC(C)C[C@H](NC(=O)[C@H](CO)NC(=O)/C=N/OCc1ccc(S(N)(=O)=O)cc1)C(N)=O`: the Ki was determined as 2500 nM.

On to `C[C@H](NC(=O)[C@H](Cc1cnc[nH]1)NC(=O)[C@H](C)NC(=O)[C@H](CCCCN)NC(=O)[C@H](Cc1ccc(O)cc1)NC(=O)[C@@H]1CCCN1C(=O)[C@H](Cc1cnc[nH]1)NC(=O)/C=N/OCc1ccc(S(N)(=O)=O)cc1)C(=O)N[C@@H](Cc1cnc[nH]1)C(N)=O` (X1-HPYKAHAH-NH2), for which the inhibition constant Ki turned out to be 358 nM.

Consider `NC(=O)[C@H](CO)NC(=O)/C=N/OCc1ccc(S(N)(=O)=O)cc1`, for which the Ki stood at 1800 nM.

In the case of `[N-]=[N+]=NCC(=O)NCCc1ccc(S(N)(=O)=O)cc1`, the Ki was determined as 1200 nM.

On to `NC(=O)[C@H](Cc1ccc(O)cc1)NC(=O)[C@H](Cc1ccc(O)cc1)NC(=O)[C@H](Cc1ccccc1)NC(=O)[C@H](Cc1c[nH]c2ccccc12)NC(=O)[C@H](Cc1ccccc1)NC(=O)[C@H](Cc1ccccc1)NC(=O)[C@@H](N)CCCCNC(=O)OCc1cn(CC(=O)NCCc2ccc(S(N)(=O)=O)cc2)nn1` (H-K(X2)FFWFYY-NH2), for which the Ki was determined as 104 nM.

For the molecule `NOCc1ccc(S(N)(=O)=O)cc1`, the Ki was 844 nM.

`CC(C)C[C@@H](C(N)=O)n1cc(-c2ccc(S(N)(=O)=O)cc2)nn1`: the Ki is 11 nM.

With `CC(C)C[C@H](NC(=O)[C@H](CO)NC(=O)/C=N/OCc1ccc(S(N)(=O)=O)cc1)C(=O)N1CCC[C@H]1C(N)=O`, the Ki stood at 2800 nM.

As to `CC(C)C[C@H](NC(=O)[C@H](CO)NC(=O)/C=N/OCc1ccc(S(N)(=O)=O)cc1)C(=O)N1CCC[C@H]1C(=O)N[C@@H](Cc1ccccc1)C(N)=O` (X1-SLPF-NH2), the Ki was 936 nM.

Consider `C#Cc1ccc(S(N)(=O)=O)cc1`, for which the Ki amounted to 150 nM.

Regarding `CC(C)C[C@H](NC(=O)[C@H](CCC(N)=O)NC(=O)[C@H](Cc1ccc(O)cc1)NC(=O)[C@H](Cc1ccccc1)NC(=O)[C@@H](N)CCCCNC(=O)OCc1cn(CC(=O)NCCc2ccc(S(N)(=O)=O)cc2)nn1)C(=O)N[C@@H](Cc1ccc(O)cc1)C(=O)N[C@@H](Cc1ccccc1)C(N)=O` (H-K(X2)FYQLYF-NH2), the Ki amounted to 69 nM.

Consider `CC(C)C[C@H](NC(=O)[C@H](CO)NC(=O)/C=N/OCc1ccc(S(N)(=O)=O)cc1)C(=O)N1CCC[C@H]1C(=O)N[C@@H](Cc1ccccc1)C(=O)N[C@H](C(=O)N[C@H](C(=O)N[C@@H](Cc1ccc(O)cc1)C(=O)N[C@@H](CC(N)=O)C(N)=O)C(C)C)[C@@H](C)O` (X1-SLPFTVYN-NH2), for which the Ki was found to be 1370 nM.
